Measured values as given in the NIST ThermoML archive (doi:10.1016/j.jct.2016.09.005).
Numbers after ± are expanded uncertainties.

Conditions: 5500 kPa, Brillouin Light Scattering

CCCCCC [hexane]
speed of sound [m/s]
Conditions	300.09 K	353.12 K	403.17 K	453.15 K	503.13 K	547.89 K	578.22 K	608.05 K	636.04 K
Fluid (supercritical or subcritical phases)	–	–	–	–	–	158.25 ± 2.4	154.04 ± 2.4	178.03 ± 2.7	194.98 ± 2.9
Liquid	1111.2 ± 15	898.5 ± 12	705.9 ± 9.8	513 ± 7.2	323.7 ± 4.6	–	–	–	–
